# Reference: ChEMBL document CHEMBL2177076, “Rational design of potent non-nucleoside inhibitors of HIV-1 reverse transcriptase” (J Med Chem, 2012)
# The source made the active and inactive calls. No cut-off for these calls is given here.
# How the values were obtained:
# [1] = tested on: Human immunodeficiency virus 1; assay: Ratio of EC50 for HIV1 expressing wild type reverse transcriptase in presence of human serum albumin and human alpha-1 acid glycoprotein to EC50 for HIV1 expressing wild type reverse transcriptase; format: functional
# [2] = Oral bioavailability in cynomolgus monkey at 5 mg/kg; format: ADME, organism-based, Macaca fascicularis; conditions: in vivo
# [3] = Oral bioavailability in dog at 5 mg/kg; format: ADME, organism-based, Canis lupus familiaris; conditions: in vivo
# [4] = Oral bioavailability in mouse at 5 mg/kg; format: ADME, organism-based; conditions: in vivo
# [5] = Oral bioavailability in Sprague-Dawley rat at 5 mg/kg; format: ADME, organism-based; conditions: in vivo
# Cynomolgus monkey = assay: AUC (0 to infinity) in cynomolgus monkey at 5 mg/kg, po; format: ADME, organism-based, Macaca fascicularis, Plasma; set-up: time infinity, dose 5 mg/kg, route oral; conditions: in vivo
# Canis familiaris = assay: AUC (0 to infinity) in dog at 5 mg/kg, po; format: ADME, organism-based, Canis lupus familiaris, Plasma; set-up: time infinity, dose 5 mg/kg, route oral; conditions: in vivo
# Rattus norvegicus = assay: AUC (0 to infinity) in Sprague-Dawley rat at 5 mg/kg, po; format: ADME, organism-based, Plasma; set-up: time infinity, dose 5 mg/kg, route oral; conditions: in vivo
# Mus musculus = assay: AUC (0 to infinity) in mouse at 5 mg/kg, po; format: ADME, organism-based, Plasma; set-up: time infinity, dose 5 mg/kg, route oral; conditions: in vivo
# [6] = Half life in dog at 1 mg/kg, iv; format: ADME, organism-based, Canis lupus familiaris; set-up: dose 1 mg/kg, route intravenous; conditions: in vivo
# [7] = Half life in cynomolgus monkey at 1 mg/kg, iv; format: ADME, organism-based, Macaca fascicularis; set-up: dose 1 mg/kg, route intravenous; conditions: in vivo
# [8] = Half life in Sprague-Dawley rat at 1 mg/kg, iv; format: ADME, organism-based; set-up: dose 1 mg/kg, route intravenous; conditions: in vivo
# [9] = Half life in mouse at 1 mg/kg, iv; format: ADME, organism-based; set-up: dose 1 mg/kg, route intravenous; conditions: in vivo
# [10] = Volume of distribution at steady state in dog at 1 mg/kg, iv; format: ADME, organism-based, Canis lupus familiaris; set-up: dose 1 mg/kg, route intravenous; conditions: in vivo, read-out: Vdss
# [11] = Volume of distribution at steady state in cynomolgus monkey at 1 mg/kg, iv; format: ADME, organism-based, Macaca fascicularis; set-up: dose 1 mg/kg, route intravenous; conditions: in vivo, read-out: Vdss
# [12] = Volume of distribution at steady state in Sprague-Dawley rat at 1 mg/kg, iv; format: ADME, organism-based; set-up: dose 1 mg/kg, route intravenous; conditions: in vivo, read-out: Vdss
# [13] = Volume of distribution at steady state in mouse at 1 mg/kg, iv; format: ADME, organism-based; set-up: dose 1 mg/kg, route intravenous; conditions: in vivo, read-out: Vdss
# [14] = Clearance in cynomolgus monkey at 1 mg/kg, iv; format: ADME, organism-based, Macaca fascicularis; set-up: dose 1 mg/kg, route intravenous; conditions: in vivo
# [15] = Clearance in dog at 1 mg/kg, iv; format: ADME, organism-based, Canis lupus familiaris; set-up: dose 1 mg/kg, route intravenous; conditions: in vivo
# [16] = Clearance in Sprague-Dawley rat at 1 mg/kg, iv; format: ADME, organism-based; set-up: dose 1 mg/kg, route intravenous; conditions: in vivo
# [17] = Clearance in mouse at 1 mg/kg, iv; format: ADME, organism-based; set-up: dose 1 mg/kg, route intravenous; conditions: in vivo
# [18] = tested on: Human immunodeficiency virus 1; assay: Antiviral activity against NNRTI-resistant HIV1 harboring reverse transcriptase Y181I/V179F double mutant infected in human MT4 cells assessed as inhibition of viral replication after 72 hrs by HeLa-CD4-LTR-beta-gal assay; format: functional, organism-based
# [19] = tested on: Human immunodeficiency virus 1; assay: Antiviral activity against NNRTI-resistant HIV1 harboring reverse transcriptase Y181C/V179F double mutant infected in human MT4 cells assessed as inhibition of viral replication after 72 hrs by HeLa-CD4-LTR-beta-gal assay; format: functional, organism-based
# [20] = tested on: Human immunodeficiency virus 1; assay: Antiviral activity against NNRTI-resistant HIV1 harboring reverse transcriptase Y181C/K103N double mutant infected in human MT4 cells assessed as inhibition of viral replication after 72 hrs by HeLa-CD4-LTR-beta-gal assay; format: functional, organism-based
# [21] = tested on: Human immunodeficiency virus 1; assay: Antiviral activity against NNRTI-resistant HIV1 harboring reverse transcriptase Y181V mutant infected in human MT4 cells assessed as inhibition of viral replication after 72 hrs by HeLa-CD4-LTR-beta-gal assay; format: functional, organism-based
# [22] = tested on: Human immunodeficiency virus 1; assay: Antiviral activity against NNRTI-resistant HIV1 harboring reverse transcriptase Y181I mutant infected in human MT4 cells assessed as inhibition of viral replication after 72 hrs by HeLa-CD4-LTR-beta-gal assay; format: functional, organism-based
# [23] = tested on: Human immunodeficiency virus 1; assay: Selectivity ratio of EC50 for NNRTI-resistant HIV1 harboring reverse transcriptase Y181V mutant to EC50 for HIV1 expressing wild type reverse transcriptase; format: functional
# [24] = tested on: Human immunodeficiency virus 1; assay: Selectivity ratio of EC50 for NNRTI-resistant HIV1 harboring reverse transcriptase Y181I mutant to EC50 for HIV1 expressing wild type reverse transcriptase; format: functional
# [25] = tested on: Human immunodeficiency virus 1; assay: Antiviral activity against NNRTI-resistant HIV1 harboring reverse transcriptase Y181C/F227C double mutant infected in human MT4 cells assessed as inhibition of viral replication after 72 hrs by HeLa-CD4-LTR-beta-gal assay; format: functional, organism-based
# [26] = tested on: Human immunodeficiency virus 1; assay: Selectivity ratio of EC50 for NNRTI-resistant HIV1 harboring reverse transcriptase Y188L mutant to EC50 for HIV1 expressing wild type reverse transcriptase; format: functional
# [27] = tested on: Human immunodeficiency virus 1; assay: Antiviral activity against NNRTI-resistant HIV1 harboring reverse transcriptase Y188L mutant infected in human MT4 cells assessed as inhibition of viral replication after 72 hrs by HeLa-CD4-LTR-beta-gal assay; format: functional, organism-based; conditions: Human immunodeficiency virus 1, MT4, 72 h
# [28] = tested on: Human immunodeficiency virus 1; assay: Antiviral activity against HIV1 expressing wild type reverse transcriptase infected in human MT4 cells assessed as inhibition of viral replication after 72 hrs by HeLa-CD4-LTR-beta-gal assay; format: functional, organism-based; conditions: Human immunodeficiency virus 1, MT4, 72 h
# [29] = tested on: Human immunodeficiency virus 1; assay: Antiviral activity against NNRTI-resistant HIV1 harboring reverse transcriptase Y181C mutant infected in human MT4 cells assessed as inhibition of viral replication after 72 hrs by HeLa-CD4-LTR-beta-gal assay; format: functional, organism-based; conditions: Human immunodeficiency virus 1, MT4, 72 h
# [30] = tested on: Human immunodeficiency virus 1; assay: Antiviral activity against NNRTI-resistant HIV1 harboring reverse transcriptase K103N mutant infected in human MT4 cells assessed as inhibition of viral replication after 72 hrs by HeLa-CD4-LTR-beta-gal assay; format: functional, organism-based; conditions: Human immunodeficiency virus 1, MT4, 72 h
# [31] = Dissociation constant, pKa of the compound; format: physicochemical
compound,measurement,setting,value
N#Cc1cc(Cl)cc(Oc2c(Br)ccc(CNC(=O)c3[nH]c(N)nc3Cl)c2F)c1,Ratio EC50,[1],71
same,bioavailability,[2],34%
same,bioavailability,[3],47%
same,bioavailability,[4],94%
same,bioavailability,[5],84%
same,AUC,Cynomolgus monkey,6460 ng·h/mL
same,AUC,Canis familiaris,14300 ng·h/mL
same,AUC,Rattus norvegicus,2510 ng·h/mL
same,AUC,Mus musculus,9600 ng·h/mL
same,half-life,[6],4.3 h
same,half-life,[7],6.1 h
same,half-life,[8],2.2 h
same,half-life,[9],3.1 h
same,Vd,[10],0.9 L/kg
same,Vd,[11],1.8 L/kg
same,Vd,[12],3.6 L/kg
same,Vd,[13],2.1 L/kg
same,clearance,[14],4.7 mL/min/kg
same,clearance,[15],2.8 mL/min/kg
same,clearance,[16],28.6 mL/min/kg
same,clearance,[17],8.2 mL/min/kg
same,inhibition,[18],Active
same,inhibition,[19],Active
same,inhibition,[20],Active
same,inhibition,[21],Active
same,inhibition,[22],Active
same,Ratio EC50,[23],<3
same,Ratio EC50,[24],<3
same,EC50,"[25]; Human immunodeficiency virus 1, MT4, 72 h",3.2 nM
same,Ratio EC50,[26],5
same,EC50,[27],0.5 nM
same,EC50,[28],0.1 nM
Cc1nc(Cl)c(C(=O)NCc2ccc(Cl)c(Oc3cc(Cl)cc(C#N)c3)c2F)[nH]1,EC50,[27],11 nM
same,EC50,[29],0.3 nM
same,EC50,[28],0.2 nM
CCCc1nc(Cl)c(C(=O)NCc2ccc(Cl)c(Oc3cc(Cl)cc(C#N)c3)c2F)[nH]1,EC50,[27],240 nM
same,EC50,[29],1.3 nM
same,EC50,[30],0.4 nM
same,EC50,[28],0.3 nM
N#Cc1cc(Cl)cc(Oc2c(Cl)ccc(CNC(=O)c3nc4ccccc4[nH]3)c2F)c1,EC50,[27],> 1000 nM
same,EC50,[29],27 nM
same,EC50,[30],18 nM
same,EC50,[28],5.1 nM
N#Cc1cc(Cl)cc(Oc2c(Cl)ccc(CNC(=O)c3[nH]c(O)nc3Cl)c2F)c1,EC50,[27],> 1000 nM
same,EC50,[29],57 nM
same,EC50,[30],14 nM
same,EC50,[28],5.3 nM
Cc1cc(/C=C/C#N)cc(C)c1Nc1ccnc(Nc2ccc(C#N)cc2)n1 [RILPIVIRINE],inhibition,[18],inactive
same,inhibition,[19],inactive
same,inhibition,[20],inactive
same,inhibition,[25],inactive
same,EC50,[27],3.7 nM
N#Cc1cc(Cl)cc(Oc2c(Cl)ccc(CNC(=O)c3cnc[nH]3)c2F)c1,EC50,[27],> 1000 nM
same,EC50,[29],260 nM
same,EC50,[30],48 nM
same,EC50,[28],9.7 nM
Cc1cc(S(N)(=O)=O)ccc1NC(=O)COc1ccc(Cl)cc1C(=O)c1cc(Cl)cc(C#N)c1,EC50,[27],18 nM
same,EC50,[29],0.5 nM
same,EC50,[30],0.5 nM
same,EC50,[28],0.3 nM
Cn1cncc1C(=O)NCc1ccc(Cl)c(Oc2cc(Cl)cc(C#N)c2)c1F,EC50,[27],> 1000 nM
same,EC50,[29],> 1000 nM
same,EC50,[30],460 nM
same,EC50,[28],120 nM
Cc1nc[nH]c1C(=O)NCc1ccc(Cl)c(Oc2cc(Cl)cc(C#N)c2)c1F,pKa,[31],> 12
same,EC50,[27],> 1000 nM
same,EC50,[29],15 nM
same,EC50,[30],7.2 nM
same,EC50,[28],2.4 nM
N#Cc1cc(Cl)cc(Oc2c(Cl)ccc(CNC(=O)c3cc4ccccc4o3)c2F)c1,EC50,[27],> 1000 nM
same,EC50,[29],340 nM
same,EC50,[30],380 nM
same,EC50,[28],52 nM
Cc1cc(C#N)cc(C)c1Oc1nc(Nc2ccc(C#N)cc2)nc(N)c1Br [ETRAVIRINE],Ratio EC50,[1],13
same,inhibition,[18],inactive
same,inhibition,[19],inactive
same,inhibition,[20],inactive
same,Ratio EC50,[23],83
same,inhibition,[25],inactive
same,EC50,[27],0.9 nM
same,EC50,[29],2.4 nM
same,EC50,[30],0.4 nM
same,EC50,[28],0.6 nM
N#Cc1cc(Cl)cc(Oc2c(Cl)ccc(CNC(=O)c3[nH]c(N)nc3Cl)c2F)c1,EC50,[27],0.9 nM
same,EC50,[28],0.1 nM
N#Cc1cc(Cl)cc(Oc2c(Cl)ccc(CNC(=O)c3[nH]c(CO)nc3Cl)c2F)c1,EC50,[27],24 nM
same,EC50,[29],1.2 nM
same,EC50,[28],0.3 nM
O=C1Nc2ccc(Cl)cc2[C@@](C#CC2CC2)(C(F)(F)F)O1 [EFAVIRENZ],EC50,[27],157 nM
same,EC50,[29],1 nM
same,EC50,[30],20 nM
N#Cc1cc(Cl)cc(Oc2c(Cl)ccc(CNC(=O)c3ccc(S(N)(=O)=O)cc3Cl)c2F)c1,EC50,[27],> 1000 nM
same,EC50,[29],180 nM
same,EC50,[30],60 nM
same,EC50,[28],13 nM
N#Cc1cc(Cl)cc(Oc2c(Cl)ccc(CNC(=O)c3[nH]cnc3C(F)(F)F)c2F)c1,EC50,[27],320 nM
same,EC50,[29],1.4 nM
same,EC50,[30],0.7 nM
same,EC50,[28],0.1 nM
N#Cc1cc(Cl)cc(Oc2c(Cl)ccc(CNC(=O)c3cc4ccccc4[nH]3)c2F)c1,EC50,[27],> 1000 nM
same,EC50,[29],58 nM
same,EC50,[30],26 nM
same,EC50,[28],8.9 nM
N#Cc1cc(Cl)cc(Oc2c(Cl)ccc(CNC(=O)c3[nH]cnc3Br)c2F)c1,EC50,[27],7.1 nM
same,EC50,[29],0.2 nM
same,EC50,[28],0.1 nM
N#Cc1cc(Cl)cc(Oc2c(Cl)ccc(CNC(=O)c3[nH]cnc3Cl)c2F)c1,pKa,[31],8.9
same,EC50,[27],5.6 nM
same,EC50,[29],0.2 nM
same,EC50,[28],0.1 nM
CCc1nc(Cl)c(C(=O)NCc2ccc(Cl)c(Oc3cc(Cl)cc(C#N)c3)c2F)[nH]1,EC50,[27],76 nM
same,EC50,[29],0.8 nM
same,EC50,[28],0.3 nM
